Patent US20250059194A1, “ULK1 AND ULK2 INHIBITORS” (Board of Trustees of Michigan State University, priority 2021, published 2025)
Where a name gives a salt, the structure may show the parent alone.

Key:
[1] = biological target: ULK2 (Homo sapiens (Human), UniProt Q8IYT8); test: ULK2 IC50; type: biochemical
[2] = test system: Cell; test: Cell EC50; type: cell-based
[3] = Kinetic Solubility; type: physicochemical; details: kinetic from dmso stock
[4] = biological target: ULK1 (Homo sapiens (Human), UniProt O75385); test: ULK1 IC50; type: biochemical
ULK1, sequence (O75385 whole entry): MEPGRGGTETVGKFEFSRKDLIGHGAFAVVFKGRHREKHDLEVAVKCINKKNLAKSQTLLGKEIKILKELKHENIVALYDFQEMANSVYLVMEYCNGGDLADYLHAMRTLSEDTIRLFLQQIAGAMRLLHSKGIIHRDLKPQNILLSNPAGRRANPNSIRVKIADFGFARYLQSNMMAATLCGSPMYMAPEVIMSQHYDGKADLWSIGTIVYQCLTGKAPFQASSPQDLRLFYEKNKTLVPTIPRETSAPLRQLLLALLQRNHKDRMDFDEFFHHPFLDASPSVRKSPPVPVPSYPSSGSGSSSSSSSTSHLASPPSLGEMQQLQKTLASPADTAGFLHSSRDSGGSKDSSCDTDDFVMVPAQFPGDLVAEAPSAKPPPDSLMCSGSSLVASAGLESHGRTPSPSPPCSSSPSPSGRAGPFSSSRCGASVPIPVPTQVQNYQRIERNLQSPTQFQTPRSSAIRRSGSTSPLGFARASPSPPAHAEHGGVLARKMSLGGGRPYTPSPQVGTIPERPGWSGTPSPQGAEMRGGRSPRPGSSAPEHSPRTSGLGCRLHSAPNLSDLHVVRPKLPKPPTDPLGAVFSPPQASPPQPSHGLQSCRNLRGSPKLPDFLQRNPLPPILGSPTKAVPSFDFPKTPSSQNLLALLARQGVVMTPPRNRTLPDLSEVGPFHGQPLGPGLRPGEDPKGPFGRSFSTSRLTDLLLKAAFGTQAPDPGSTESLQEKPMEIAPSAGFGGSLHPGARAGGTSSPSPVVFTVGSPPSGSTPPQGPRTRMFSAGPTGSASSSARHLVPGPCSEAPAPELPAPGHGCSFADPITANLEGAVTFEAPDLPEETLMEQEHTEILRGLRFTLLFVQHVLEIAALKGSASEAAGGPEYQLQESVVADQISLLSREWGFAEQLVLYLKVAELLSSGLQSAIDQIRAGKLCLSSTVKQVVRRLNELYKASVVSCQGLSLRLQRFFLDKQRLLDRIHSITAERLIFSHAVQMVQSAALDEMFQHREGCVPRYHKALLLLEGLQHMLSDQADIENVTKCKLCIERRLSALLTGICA

ULK2, sequence (Q8IYT8 whole entry): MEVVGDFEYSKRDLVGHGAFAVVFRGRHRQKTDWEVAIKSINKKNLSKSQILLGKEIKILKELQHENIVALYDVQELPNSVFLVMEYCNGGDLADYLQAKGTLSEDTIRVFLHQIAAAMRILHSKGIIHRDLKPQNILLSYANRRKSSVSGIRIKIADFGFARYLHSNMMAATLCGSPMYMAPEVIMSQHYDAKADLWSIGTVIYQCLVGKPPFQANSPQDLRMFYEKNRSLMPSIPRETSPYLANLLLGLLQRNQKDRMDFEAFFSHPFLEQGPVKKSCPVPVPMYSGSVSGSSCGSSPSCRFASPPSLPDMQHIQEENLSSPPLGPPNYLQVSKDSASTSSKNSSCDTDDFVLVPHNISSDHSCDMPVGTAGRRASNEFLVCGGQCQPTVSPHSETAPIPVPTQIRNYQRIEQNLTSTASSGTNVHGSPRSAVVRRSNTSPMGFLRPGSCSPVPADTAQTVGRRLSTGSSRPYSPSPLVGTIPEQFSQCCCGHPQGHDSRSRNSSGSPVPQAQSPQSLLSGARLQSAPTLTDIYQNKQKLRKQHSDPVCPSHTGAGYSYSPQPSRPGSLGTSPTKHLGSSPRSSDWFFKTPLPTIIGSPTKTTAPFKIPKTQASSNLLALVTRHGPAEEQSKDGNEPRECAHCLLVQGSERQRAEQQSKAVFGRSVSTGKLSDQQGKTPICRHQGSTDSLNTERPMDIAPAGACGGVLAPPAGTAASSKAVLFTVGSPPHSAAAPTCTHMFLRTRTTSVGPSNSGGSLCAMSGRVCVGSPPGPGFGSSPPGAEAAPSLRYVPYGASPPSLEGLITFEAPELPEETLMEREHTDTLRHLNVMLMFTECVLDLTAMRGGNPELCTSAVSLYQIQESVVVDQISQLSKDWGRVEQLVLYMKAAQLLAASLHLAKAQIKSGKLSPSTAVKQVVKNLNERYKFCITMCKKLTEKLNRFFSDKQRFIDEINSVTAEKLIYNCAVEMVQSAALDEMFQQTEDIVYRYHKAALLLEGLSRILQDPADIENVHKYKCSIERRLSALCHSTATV

**Q.** Which IC50 [1] does the source give for N[C@@H]1CCCC[C@@H]1NC(=O)c1cc(-c2cnn3cc(N4CCNCC4)cnc23)cs1 [N-[(1S,2R)-2-aminocyclohexyl]-4-[6-(piperazin-1-yl)pyrazolo[1,5-a]pyrimidin-3-yl]thiophene-2-carboxamide dihyrochloride] here?
**A.** 1 to 49 nM

**Q.** And the EC50 [2]?
**A.** 1 to 49 nM

**Q.** And the solubility kinetic [3]?
**A.** > 300 µM

**Q.** What about the IC50 [4] of the same compound?
**A.** 1 to 49 nM

**Q.** For CCC(NC(=O)c1cc(-c2cnn3cc(Nc4ccccc4)cnc23)cs1)C1CC1 (stereo not drawn), which IC50 [4] is on record?
**A.** 1 to 49 nM

**Q.** For CCC(CC)NC(=O)c1cc(-c2cnn3cc(N4CCC(N)CC4)cnc23)cs1 [4-[6-(4-aminopiperidin-1-yl)pyrazolo[1,5-a]pyrimidin-3-yl]-N-(pentan-3-yl)thiophene-2-carboxamide hydrochloride], which IC50 [1] is on record?
**A.** 50 to 99 nM

**Q.** What about the EC50 [2] of the same compound?
**A.** 100 to 499 nM

**Q.** And the solubility kinetic [3]?
**A.** 203 µM

**Q.** And the IC50 [4]?
**A.** 1 to 49 nM

**Q.** With CC(C)(CO)NC(=O)c1cc(-c2cnn3cc(N4CCNCC4)cnc23)cs1 [N-(1-hydroxy-2-methylpropan-2-yl)-4-[6-(piperazin-1-yl)pyrazolo[1,5-a]pyrimidin-3-yl]thiophene-2-carboxamide hydrochloride] as the compound, how does the IC50 [1] read?
**A.** 500 to 1000 nM

**Q.** What about the IC50 [4] of the same compound?
**A.** 100 to 499 nM

**Q.** Which IC50 [4] does the source give for O=C(N[C@@H](C1CC1)C(F)(F)F)c1cc(-c2cnn3cc(Nc4ccc(F)cc4)cnc23)cs1 here?
**A.** 1 to 49 nM

**Q.** For CCC(CC)NC(=O)c1cc(-c2cnn3cc(N4CCC(NC(=O)OC(C)(C)C)CC4)cnc23)cs1, which EC50 [2] is on record?
**A.** > 1000 nM

**Q.** And the IC50 [4]?
**A.** 50 to 99 nM

**Q.** For CCC(CC)NC(=O)c1cc(-c2cnn3cc(-n4ccccc4=O)cnc23)cs1 [4-[6-(2-oxo-1,2-dihydropyridin-1-yl)pyrazolo[1,5-a]pyrimidin-3-yl]-N-(pentan-3-yl)thiophene-2-carboxamide], which IC50 [4] is on record?
**A.** 500 to 1000 nM

**Q.** With CC(C)(CO)NC(=O)c1cc(-c2cnn3cc(N4CCN(C(=O)OC(C)(C)C)CC4)cnc23)cs1 [tert-butyl 4-(3-{5-[(1-hydroxy-2-methylpropan-2-yl)carbamoyl]thiophen-3-yl}pyrazolo[1,5-a]pyrimidin-6-yl) piperazine-1-carboxylate] as the compound, how does the IC50 [1] read?
**A.** 100 to 499 nM

**Q.** What about the IC50 [4] of the same compound?
**A.** 1 to 49 nM

**Q.** With NC1CCN(c2cnc3c(-c4csc(C(=O)N[C@@H](C5CC5)C(F)(F)F)c4)cnn3c2)CC1 as the compound, how does the IC50 [4] read?
**A.** 1 to 49 nM

**Q.** Which results are given for CCC(CC)NC(=O)c1cc(-c2cnn3cc(N4CCN(C(=O)OC(C)(C)C)CC4)cnc23)cs1 [tert-butyl 4-(3-{5-[(pentan-3-yl)carbamoyl]thiophen-3-yl}pyrazolo[1,5-a]pyrimidin-6-yl) piperazine-1-carboxylate]?
**A.** EC50 [2]: > 1000 nM; IC50 [4]: 1 to 49 nM

**Q.** With CCC(CC)NC(=O)c1cc(-c2cnn3cc(N4CCCC4)cnc23)cs1 [N-(pentan-3-yl)-4-[6-(pyrrolidin-1-yl)pyrazolo[1,5-a]pyrimidin-3-yl]thiophene-2-carboxamide] as the compound, how does the IC50 [4] read?
**A.** 500 to 1000 nM

**Q.** For CC(C)(C)OC(=O)N[C@@H]1CCCC[C@@H]1NC(=O)c1cc(-c2cnn3cc(N4CCN(C(=O)OC(C)(C)C)CC4)cnc23)cs1 [tert-butyl 4-[3-(5-{[(1S,2R)-2-{[(tert-butoxy)carbonyl]amino}cyclohexyl]carbamoyl}thiophen-3-yl)pyrazolo[1,5-a]pyrimidin-6-yl]piperazine-1-carboxylate], which IC50 [1] is on record?
**A.** 500 to 1000 nM

**Q.** And the IC50 [4]?
**A.** 100 to 499 nM

**Q.** For CCC(CC)NC(=O)c1cc(-c2cnn3cc(Nc4ccccc4)cnc23)cs1 [N-(pentan-3-yl)-4-[6-(phenylamino)pyrazolo[1,5-a]pyrimidin-3-yl]thiophene-2-carboxamide], which IC50 [1] is on record?
**A.** 1 to 49 nM

**Q.** What about the EC50 [2] of the same compound?
**A.** 100 to 499 nM

**Q.** What about the IC50 [4] of the same compound?
**A.** 1 to 49 nM

**Q.** Which IC50 [4] does the source give for CCC(CC)NC(=O)c1cc(-c2cnn3cc(NC4CC4)cnc23)cs1 [4-[6-(cyclopropylamino)pyrazolo[1,5-a]pyrimidin-3-yl]-N-(pentan-3-yl)thiophene-2-carboxamide] here?
**A.** 100 to 499 nM

**Q.** Which IC50 [4] does the source give for O=C(N[C@@H](C1CC1)C(F)(F)F)c1cc(-c2cnn3cc(N4CCNCC4)cnc23)cs1 here?
**A.** 1 to 49 nM

**Q.** With CCC(CC)NC(=O)c1cc(-c2cnn3cc(N4CCNCC4)cnc23)cs1 [hydrochloride] as the compound, how does the EC50 [2] read?
**A.** 500 to 1000 nM

**Q.** What about the solubility kinetic [3] of the same compound?
**A.** > 300 µM

**Q.** What about the IC50 [4] of the same compound?
**A.** 50 to 99 nM

**Q.** For CC[C@H](NC(=O)c1cc(-c2cnn3cc(Nc4ccccc4)cnc23)cs1)C(F)(F)F, which IC50 [4] is on record?
**A.** 1 to 49 nM

**Q.** Which IC50 [4] does the source give for O=C(N[C@@H](C1CC1)C(F)(F)F)c1cc(-c2cnn3cc(Nc4ccccc4)cnc23)cs1 here?
**A.** 1 to 49 nM
